The METLIN SMRT retention time set (Domingo-Almenara et al. 2019)

Experiment: gradient 5% acetonitrile 3 min, to 50% in 2 min, to 85% in 15 min, held 3 min, 100 µL/min
Details: column: Zorbax Extend-C18 2.1 x 50 mm; eluents: water / acetonitrile, 0.1% formic acid
How it was run: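 Each retention time is based on an adduct peak selected computationally and verified by manual inspection. Measurements used HPLC–quadrupole time-of-flight mass spectrometry in positive and negative ionization mode on mixtures of ~100 pure standards. Chromatography ran on a Zorbax Extend-C18 column (2.1 × 50 mm, 1.8 μm) at 100 μL/min with water and acetonitrile, each containing 0.1% formic acid, and dead and dwell volumes of 40 μL and 900 μL.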

Row | SMILES | RP-LC retention time [s]
1 | CCOC(=O)c1c(CN(C)C)n(C)c2cc(C#N)c(O)cc12 | 598
2 | COc1cccc(S(=O)(=O)N2CCCC(Cn3c(C)nc4cccnc43)C2)c1 (centres undefined) | 693
3 | CN1C(=O)c2cc(C(=O)NCCc3ccccc3)nn2CC1(C)C(=O)NCc1ccc(F)cc1 (centres undefined) | 768
4 | CNC(=O)c1nn(C)c2c1C(C)(C)Cc1cnc(Nc3ccc(N4CCN(C)CC4)cc3)nc1-2 | 656
5 | COc1ccc(NC(=O)Cn2c(N3CCOCC3)nc(C)cc2=O)cc1F | 644
6 | CC(NC(=O)c1ccc(-c2ccnc(N3CCCC3)n2)cc1)c1cccnc1 (centres undefined) | 586
7 | O=C(Cc1c[nH]c2ccccc12)NC1CCN(c2ccc(=O)[nH]n2)C1 (centres undefined) | 600
8 | COc1ccc(OC)c(CNC(=O)C2CCN(Cc3cn(C)c4ccc(OC)cc34)CC2)c1 | 682
9 | CCCn1c(CCNC(=O)c2ccccc2)nc2cccnc21 | 633
10 | CC1=C(c2ccccc2)S(=O)(=O)N=C1N1CCCN(C(=O)c2ccccc2)CC1 | 697
11 | COc1ccccc1-n1ccnc(NC(=O)Nc2ccc(F)cc2F)c1=O | 938
12 | COc1ccc(C2(C(=O)N3CCC(Oc4ccccc4-c4nc(C)no4)C3)CC2)cc1 (centres undefined) | 880
13 | CC(C)(C)C(=O)N1CCCC(C(=O)Nc2sc3c(c2C(N)=O)CCCC3)C1 (centres undefined) | 861
14 | CCOC(=O)c1ccc(NC(=O)CN2N=NC3C(=O)N(c4ccc(F)cc4)C(=O)C32)cc1 (centres undefined) | 812
15 | Cc1cc(C)c2c(=O)n(Cc3nc(-c4ccccc4Cl)oc3C)c(=O)n(Cc3ccco3)c2n1 | 1390
16 | Cc1cnc(C(=O)NC2C[C@H]3CC[C@@H](C2)N3C(=O)CCC2CCCCC2)cn1 (some centres undefined) | 821
17 | COC(=O)C1=C(C)NC(C)=C(C(=O)OC(C)(C)CN(C)CCC(c2ccccc2)c2ccccc2)C1c1cccc([N+](=O)[O-])c1 (centres undefined) | 1010
18 | Cc1ccc(C)c(-c2cc3c(=O)n(Cc4noc(-c5ccccn5)n4)ccn3n2)c1 | 923
19 | CC(C)S(=O)(=O)c1cc2c(cc1NC(=O)c1ccc(F)cc1)n(C)c(=O)n2C | 788
20 | Nc1cc(C2CCN(S(=O)(=O)Cc3ccccc3)CC2)no1 | 732
21 | Cn1cc(CN2CCC(C(=O)NCc3ccccc3F)CC2)c2cc(Cl)ccc21 | 705
22 | CCc1ccc(N2CC(c3noc(-c4ccco4)n3)CC2=O)cc1 (centres undefined) | 921

Row | SMILES | RP-LC retention time [s]
23 | Cc1ccc(CC(=O)N2CCC3(CC2)N=C(c2ccc(C)cc2)NO3)cc1 | 874
24 | CC(C)Cn1cc(CCNS(=O)(=O)c2ccc(Cl)s2)c2cccnc21 | 987
25 | Cc1cc(C)n(CCC(=O)NCC23CCC=C2N(CC2CC2)C(=O)CC3)n1 (centres undefined) | 698
26 | Cc1ccc(-n2ncc3c(=O)n(Cc4nc(-c5ccc(OC(F)(F)F)cc5)no4)cnc32)cc1 | 1200
27 | CCN1C(=O)Cc2ccccc2C1C(=O)NCc1ccc(Br)cc1 (centres undefined) | 802
28 | Cc1csc(-c2cc(S(=O)(=O)N3c4ccccc4CC3C)c(C)s2)n1 (centres undefined) | 1220
29 | COC(=O)c1ccc2c(=O)n(-c3cc(C)cc(C)c3)c(N3CCN(C(C)C)CC3)nc2c1 | 695
30 | O=C(Cc1csc(Nc2ccccc2)n1)NCCC1=CCCCC1 | 865
31 | CCOc1ccc(N2CCn3c2nnc(C(=O)NCc2ccco2)c3=O)cc1 | 684
32 | O=C(NC1CCCC1)c1nc(C(=O)N2CCN(c3cccc(Cl)c3)CC2)cs1 | 1020
33 | Cc1ccc(-c2noc(CCN3CCN(c4ccccn4)CC3)n2)cc1 | 625
34 | Cc1sc(NC(=O)Cc2ccccc2)nc1-c1ccc2c(c1)NC(=O)CO2 | 830
35 | O=C(Nc1ccc(F)cc1)C1CCN(S(=O)(=O)c2cc(C(=O)N3CCOCC3)cs2)CC1 | 755
36 | CCCn1cc(-c2ccncc2)cc1C(=O)NCc1cc(F)cc(F)c1 | 711
37 | Cn1ncc2c(N3CCSCC3)nc(C(=O)NCCc3ccc(Cl)cc3)nc21 | 913
38 | CCc1nnc2ccc(NCC3CCCO3)nn12 (centres undefined) | 646
39 | Cc1ccc(-c2cc3c4nnc(SCC(=O)NCCC(C)C)n4ccn3n2)cc1C | 942
40 | Cc1[nH]c2ccc(F)cc2c1CCNCc1ccccn1 | 572
41 | CCOC(=O)c1c(C)oc2nc(C)nc(N3CCN(c4ccccn4)CC3)c12 | 654
42 | CCS(=O)(=O)NCc1ccc2c(c1)CCN2C(=O)c1ccc(Cl)cc1 | 829
43 | COc1ccc(NC(=O)N2CCC(C(=O)NCc3csc(-c4ccccc4)n3)CC2)c(OC)c1 | 777
44 | Cc1ccc(-c2nc3cnccn3c2Nc2ccc(C)cc2Br)cc1 | 1140
